What was measured:
db/db mice = experiment: Investigation with db/db mice (blood glucose and lipids); type: in vivo, mouse; conditions: for Glucose Diff. D o − D 12 / HDL-cholesterol Diff. D o − D 12 / Total cholesterol Diff. D o − D 12 / Triglycerides Diff. D o − D 12: change day 0 to day 12; for Glucose D o / HDL-cholesterol D o / Total cholesterol D o / Triglycerides D o: day 0; for Glucose D 12 / HDL-cholesterol D 12 / Total cholesterol D 12 / Triglycerides D 12: day 12; for Glucose D-4 / HDL-cholesterol D-4 / Total cholesterol D-4 / Triglycerides D-4: day −4
Procedure: The following compounds are investigated and compared to placebo (vehicle control).
The mentioned 3 compounds are tested in db/db mice during a time when diabetes is in a rapid developing stage. […] Each dosage group and the vehicle group comprise 7 mice. The suspensions used are prepared with peroxide free arachis oil as vehicle. Blood samples are collected by retro-orbital bleeding at days −4, 0 and 12. The blood levels of glucose, triglycerides, total cholesterol, and HDL-cholesterol are determined.
For evaluation of efficacy, the difference between the values of glucose, triglycerides, total cholesterol and HDL-cholesterol changing from day 0 to day 12 is determined and expressed in %. […] Overall evaluation consists in determining the efficacy of the compounds by calculating the whole extent of the effect expressed in %. […] This value is considered as a valuable indicator for the efficacy of the investigated compounds administered in a tolerated dose.

skin of rats = experiment: Topical administration to the skin of rats (irritation); type: in vivo; conditions: concentrations up to 2.5%
MMP-1 mRNA = MMP-1 mRNA in synovial fibroblasts (real time PCR); type: cell-based, human
Procedure: Furthermore, it is determined whether this is accompanied by a modulation in the accumulation of the mRNA encoding catabolic enzyme matrix metalloproteinase-1 (MMP-1), responsible for degradation of human cartilage and consequently joint destruction in man. Adherent synovial fluid cells taken from a patient with RA are used after 5 passages in an in vitro assay for cartilage destruction. The cells incubated in flasks coated with 0.1% (0.1 g/100 ml) human cartilage powder are fixed using Matrigel® (BD Biosciences, Becton, Dickinson & Co., Boston, Mass., USA).
This is conducted in the presence or absence of IL-1β (100 pg/ml).

[1] = test system: myeloperoxidase (MPO) activity; experiment: Acute inflammation of mouse ears, MPO activity; type: in vivo, C57BL/6 mice; conditions: 9-cis RA 0.05% alone, topical, 4 d
Procedure: […] mice of the C57BL/6 strain are used. Inflammation is induced on mouse ears with either AtRA, 9-cis RA or TPA by topical application. Inflammation is measured objectively by determination of the activity of myeloperoxidase (MPO) being directly correlated to the infiltration of polymorphonuclear white blood cells and by the determination of mRNA expression of c-jun, a protein implicated in the AP-1 transduction pathway according to known methods, see e.g. P. L. Stanley et al., Skin Pharmacol. 4, 262-271 (1991) (MPO assay), N. Basset-Sequin et al., J. Invest. Dermatol. 94, 418-422 (1990), F. J. Rauscher et al., Cell 52, 471-480 […], P. Sassone-Corn et al., Nature 326, 507-510 (1987), and M. Pfahl, Endocr. Rev. 14, 651-658, 1993, which are incorporated by reference regarding the experimental method.
In the “acute inflammation” test, mice are treated topically (epicutaneously), orally or intraperitoneally, daily for 4 days. In the “semi chronic inflammation” test, mice are treated topically according to the schedules given below. For each experiment, a group of at least 4 mice of both sexes are used in the defined condition, regarding placebo, vehicle control, compound, topical formulation, oral formulation, dosage and concentration. The topical vehicle consists of ethanol/PEG 400/water (3:1:1).
The anti-inflammatory effect of topical RXR antagonist compound 15 is tested by determination of myeloperoxidase activity in % of vehicle treated controls. For induction of inflammation 9-cis RA or TPA are applied topically to the skin, daily for 4 days. The RXR antagonist compound 15 (see Table 1) is administered topically one hour after the application of the inflammation inducing agent. The mice are sacrified 24 hours after the last treatment.

[2] = 30 mg/kg/day group versus vehicle group

## CC1=C(/C=C/C2=C(/C=C/C(C)=C/C(=O)O)CCCCC2)C(C)(C)CCC1 [Compound 1, (2E,4E)-3-methyl-5-[2-[(E)-2-(2,6,6-trimethyl-1-cyclohexen-1-yl)ethenyl]-1-cyclohepten-1-yl]-2,4-pentadienoic acid]
db/db mice; 0.3 mg/kg/day i.p.
  Glucose Diff. D o − D 12: +57.5%
  HDL-cholesterol Diff. D o − D 12: −3.2%
  Total cholesterol Diff. D o − D 12: −14.1%
  Triglycerides Diff. D o − D 12: +25.4%
  Glucose D o: 207 mg/dL
  HDL-cholesterol D o: 3.78 mmol/L
  Total cholesterol D o: 4.27 mmol/L
  Triglycerides D o: 1.73 mmol/L
  Glucose D 12: 326 mg/dL
  HDL-cholesterol D 12: 2.69 mmol/L
  Total cholesterol D 12: 3.67 mmol/L
  Triglycerides D 12: 2.17 mmol/L
  Glucose D-4: 138 mg/dL
  HDL-cholesterol D-4: 2.65 mmol/L
  Total cholesterol D-4: 4.26 mmol/L
  Triglycerides D-4: 1.83 mmol/L
db/db mice; 3 mg/kg/day
  Glucose levels (in words): no significant change
  HDL-cholesterol levels (in words): not influenced
  Triglyceride levels (in words): hardly influenced
db/db mice; 3.0 mg/kg/day i.p.
  Glucose Diff. D o − D 12: +40.7%
  HDL-cholesterol Diff. D o − D 12: −19.6%
  Total cholesterol Diff. D o − D 12: −19.9%
  Triglycerides Diff. D o − D 12: +15.3%
  Glucose D o: 194 mg/dL
  HDL-cholesterol D o: 3.37 mmol/L
  Total cholesterol D o: 4.68 mmol/L
  Triglycerides D o: 1.83 mmol/L
  Glucose D 12: 273 mg/dL
  HDL-cholesterol D 12: 2.71 mmol/L
  Total cholesterol D 12: 3.75 mmol/L
  Triglycerides D 12: 2.11 mmol/L
  Glucose D-4: 155 mg/dL
  HDL-cholesterol D-4: 2.53 mmol/L
  Total cholesterol D-4: 4.25 mmol/L
  Triglycerides D-4: 1.85 mmol/L
db/db mice; 30 mg/kg/day
  Glucose levels (in words): decrease markedly
  HDL-cholesterol levels (in words): markedly increased
  Total cholesterol levels (in words): slightly higher
  Triglyceride levels (in words): decreasing significantly
db/db mice; [2]
  Overall extent of the effect on blood levels of Glucose: −62.5%
  Overall extent of the effect on blood levels of HDL-cholesterol: +18.4%
  Overall extent of the effect on blood levels of Total cholesterol: −16.6%
  Overall extent of the effect on blood levels of Triglycerides: −21.5%
db/db mice; 30 mg/kg/day i.p.
  Glucose Diff. D o − D 12: −12.3%
  HDL-cholesterol Diff. D o − D 12: +14.6%
  Total cholesterol Diff. D o − D 12: +7.8%
  Triglycerides Diff. D o − D 12: +0.6%
  Glucose D o: 335 mg/dL
  HDL-cholesterol D o: 2.94 mmol/L
  Total cholesterol D o: 4.21 mmol/L
  Triglycerides D o: 1.7 mmol/L
  Glucose D 12: 206 mg/dL
  HDL-cholesterol D 12: 3.37 mmol/L
  Total cholesterol D 12: 4.54 mmol/L
  Triglycerides D 12: 1.71 mmol/L
  Glucose D-4: 174 mg/dL
  HDL-cholesterol D-4: 2.46 mmol/L
  Total cholesterol D-4: 4.37 mmol/L
  Triglycerides D-4: 2.13 mmol/L
Skin of rats
  Irritation or inflammation of the skin: does not lead to irritation or inflammation of the skin

## CC1=C(/C=C/C(C)=C\C=C\C(C)=C\C(=O)O)C(C)(C)CCC1 [9-cis RA, 9-cis retinoic acid, reference compound]
MMP-1 mRNA; 10^−7 M, after 24 hours
  MMP-1 mRNA, fold increase of baseline value: 2.60 relative units
MMP-1 mRNA; 10^−8 M, 0 hours
  MMP-1 mRNA, fold increase of baseline value: 1 relative units
MMP-1 mRNA; 10^−8 M, 2 hours
  MMP-1 mRNA, fold increase of baseline value: 0.98 relative units
MMP-1 mRNA; 10^−8 M, 6 hours
  MMP-1 mRNA, fold increase of baseline value: 1.31 relative units
MMP-1 mRNA; 10^−8 M, 12 hours
  MMP-1 mRNA, fold increase of baseline value: 3.39 relative units
MMP-1 mRNA; 10^−8 M, 24 hours
  MMP-1 mRNA, fold increase of baseline value: 3.79 relative units
MMP-1 mRNA; 10^−8 M, 48 hours
  MMP-1 mRNA, fold increase of baseline value: 1.47 relative units
MMP-1 mRNA; 10^−8 M, after 24 hours
  MMP-1 mRNA, fold increase of baseline value: 3.39 relative units
MMP-1 mRNA; 10^−9 M, after 24 hours
  MMP-1 mRNA, fold increase of baseline value: 1.54 relative units
[1]
  MPO activity (% vehicle treated mice): 647 ± 142 % vehicle treated mice
